This is an account of results in ChEMBL document CHEMBL5550154, “Novel biaryloxazolidinone derivatives with broad-spectrum antibacterial activity, favorable drug-like profiles and in vivo efficacy against linezolid-resistant Staphylococcusaureus” (Eur J Med Chem, 2024).

Data set [1] has as its system Staphylococcus aureus. In words: Antibacterial activity against Linezolid-resistant Staphylococcus aureus infected in systemic infection SPF-kunming mouse model assessed as survival rate at 2.5 mg/kg, IG measured every day for 7 days. The class given is functional. The following applies: po, 168 h, time 7 day.
Data set [2] concerns Staphylococcus aureus. In words: Antibacterial activity against Linezolid-resistant Staphylococcus aureus infected in systemic infection SPF-kunming mouse model assessed as survival rate at 40 mg/kg, IG measured every day for 7 days. The following applies: po, 168 h, time 7 day. Type of data set: functional.
Data set [3] deals with Staphylococcus aureus. In words: Antibacterial activity against Linezolid-resistant Staphylococcus aureus infected in systemic infection SPF-kunming mouse model assessed as survival rate at 10 mg/kg, IG measured every day for 7 days. The class given is functional, organism-based. The following applies: time 7.0 day.
The target of data set [4] is T1, Amine oxidase [flavin-containing] B (Homo sapiens, UniProt P27338).
T1 sequence (P27338 whole entry): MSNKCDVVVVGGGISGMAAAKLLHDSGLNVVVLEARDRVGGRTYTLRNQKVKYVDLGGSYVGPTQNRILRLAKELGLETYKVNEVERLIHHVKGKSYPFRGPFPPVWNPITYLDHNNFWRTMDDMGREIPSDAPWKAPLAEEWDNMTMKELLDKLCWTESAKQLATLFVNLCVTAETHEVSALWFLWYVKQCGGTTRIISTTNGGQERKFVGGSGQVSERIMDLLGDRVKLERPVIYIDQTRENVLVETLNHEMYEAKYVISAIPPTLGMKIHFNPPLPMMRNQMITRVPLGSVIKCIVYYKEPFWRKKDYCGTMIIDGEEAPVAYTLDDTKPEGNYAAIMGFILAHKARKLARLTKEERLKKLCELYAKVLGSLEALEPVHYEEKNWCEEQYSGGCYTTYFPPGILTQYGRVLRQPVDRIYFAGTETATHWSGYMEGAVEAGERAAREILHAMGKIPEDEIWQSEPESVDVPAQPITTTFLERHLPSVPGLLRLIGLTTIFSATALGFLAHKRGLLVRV
In words: Inhibition of MAO-B (unknown origin) preincubated with compound for 15 mins followed by substrate addition and measured after 60 mins by luminescence based microplate reader analysis. The class given is toxicity.

For data set [5], the system named is Staphylococcus aureus. In words: Antibacterial activity against methicillin-resistant Staphylococcus aureus assessed as inhibition of bacterial growth. Type of data set: functional.
Data set [6] has as its system Staphylococcus aureus. In words: Antibacterial activity against vancomycin-resistant Staphylococcus aureus assessed as inhibition of bacterial growth. Type of data set: functional.
The nature of data set [7]: Stability in simulated gastric acid assessed as compound remaining at pH 1.3 measured immediately. Type of data set: ADME. Particulars: read-out: Stability.
Data set [8] can be described thus: Stability in simulated gastric acid assessed as compound remaining at pH 1.3 measured at 0.5 hrs. The class given is ADME. Particulars: read-out: Stability.
Data set [9] can be described thus: Stability in simulated gastric acid assessed as compound remaining at pH 1.3 measured at 1 hr. Type of data set: ADME. The following applies: read-out: Stability.
Data set [10] can be described thus: Stability in simulated gastric acid assessed as compound remaining at pH 1.3 measured at 2 hrs. The class given is ADME. The following applies: read-out: Stability.

Converted amounts (≈) assume the structure as drawn. The source made the active and inactive calls. The calls are words filed in the database; no cut-off is given here.

`O=C1O[C@@H](CO)CN1c1ccc(-c2ccc(/C=N/N3CCOCC3)nc2)c(F)c1`: the survival at 2.5 mg/kg with Staphylococcus aureus [1] is 0%. Besides, the survival at 40 mg/kg in the data set on Staphylococcus aureus [2] came to 100%. In addition, the outcome in the data set with Staphylococcus aureus [3] was Active. The IC50 (usually the concentration needed to halve the response being measured) in data set [4] worked out at 34.8 µM.

On to `CC(=O)NC[C@H]1CN(c2ccc(N3CCOCC3)c(F)c2)C(=O)O1` [LINEZOLID], for which the MIC in the data set with Staphylococcus aureus [5] and with Staphylococcus aureus [6] was 1 µg/mL (≈ 2.96 µM) in each case.

On to `CC(C)N/N=C/c1ccc(-c2ccc(N3C[C@H](CO)OC3=O)cc2F)cn1`, for which, in [7], the remaining at 0 h is 100%. In data set [8], the remaining at 0.5 h was 96.7%. Besides, the remaining at 1 h in [9] is 94.3%. Also, in data set [10], the remaining at 2 h is 87.1%.
